“And” between values parts separate entries of the source, which are not always exact repeats. Equal values may be shown once. In the oligonucleotide strings, read from the 5' end, every base follows the letter of its sugar. An asterisk marks phosphorothioate; unmarked linkages are phosphodiester. Other units and linkages are bracketed, terminal groups are in braces. A string of capitals states the bases alone. e = 2'-O-(2-methoxyethyl) (MOE); [5mC] = 5-methylcytosine; d = 2'-deoxy (DNA)
System: HeLa cells
Assay: Cell cycle assay in HeLa cells
Assay type: cell-based, human
Conditions: for % cells in cell cycle phase: G1 / % cells in cell cycle phase: G2/M / % cells in cell cycle phase: S / % cells in cell cycle phase: aneuploid / % cells in cell cycle phase: subG1: 48 hours after treatment, relative to untreated control (UTC=100); for phase of the cell cycle in which cells arrest or delay: HeLa
Protocol: In some embodiments, HeLa cells were plated on collagen-coated 24-well plates at 50,000-60,000 cells per well, and allowed to attach to wells overnight. In some embodiments, HeLa cells were synchronized by double thymidine block (cells were washed three times with PBS, then grown in 10% FBS containing 2 mM thymidine; then 19 hours later, cells were washed three times in PBS, 10% FBS for 9 hours; cells were then incubated in 10% FBS, 2 mM thymidine for 15 hours; then washed three times with PBS, 10% FBS and samples were taken every two hours over a 16 hour period). A portion of each time sample was fixed with ethanol and treated with propidium iodide and subjected to FACs analysis for determination of the percentage of cells in each phase of the cell cycle. […] HeLa cells treated with 10 μM cisplatin or 100 ng/ml nocodazole were used as controls for G1-phase and late G2/M-phases, respectively. From the remaining portion of each of these time samples, total RNA was isolated and used to assess the expression of cell cycle marker mRNAs using the real-time RT-PCR methods and/or used to screen microarrays to assess the expression of miRNAs over the course of the cell cycle. It was observed that several miRNAs are expressed in a cell-cycle-dependent manner. Shown in Table 30 are the mRNA levels of the E2F1 transcription factor and topoisomerase 2A (Top2A), which vary over the course of the cell cycle and can be used for comparison to the experimental groups for the confirmation of cell cycle phase. Data are an average of three trials.
In some embodiments, HeLa cells were also treated with oligomeric compounds targeting miRNAs. […] The medium was removed from the plates. Each well was washed in 250 μl of PBS. […] Control cells received LIPOFECTIN™ only. […] After 24 hours (Table 31) or 48 hours (Table 32), cells were prepared for flow cytometry analysis to generate a cell cycle profile. The cell cycle profile was analyzed with the ModFit program (Verity Software House, Inc., Topsham Me.).
The random-mer ISIS 29848 (SEQ ID NO: 737) was used as a negative control, and ISIS 183891 (SEQ ID NO: 847), targeting kinesin-like 1/Eg5, was included as a positive control. Data are expressed as percentage of cells in each phase relative to the untreated control (UTC); values above 100 are considered to indicate a delay or arrest in that phase of the cell cycle. […] In some cases, the same oligomeric compound was tested in repeated experiments.
In accordance with the present invention, certain oligomeric compounds targeting miRNAs were selected for dose response studies. Using the cell cycle assay described above, the cell cycle profiles of HeLa or A549 cells treated with varying concentrations of oligomeric compounds of the present invention were assessed.
HeLa cells were treated with 25-, 50-, 100- or 150 nM of the oligomeric compounds ISIS
Numbers 327902 (SEQ ID NO: 320) and 328383 (SEQ ID NO: 492), both targeted against mir-192, and ISIS 327905 (SEQ ID NO: 323), targeting mir-205, and ISIS 328403 (SEQ ID NO: 512), targeting mir-106. Cells treated with increasing concentrations of oligomeric compounds were compared to untreated cells, to assess the dose-dependency of the observed delay or arrest. The random-mer ISIS 29848 was used as a negative control. Cells were prepared for flow cytometry 48-hours after oligonucleotide treatment, as described, supra.

[1] = HeLa cells, 150 nM oligomeric compound, 24 hours, relative to untreated control (UTC = 100)
[2] = HeLa cells, 150 nM oligomeric compound
[3] = HeLa cells, 150 nM, 48 hours, relative to untreated control

Row | Substance | % cells aneuploid [1] | % cells in cell cycle phase G1 [1] | % cells in cell cycle phase G2/M [1] | % cells in cell cycle phase S [1] [%] | % cells in cell cycle phase subG1 [1] | % cells in cell cycle phase: G1 [2] | % cells in cell cycle phase: G2/M [2] | % cells in cell cycle phase: S [2] | % cells in cell cycle phase: aneuploid [2] | % cells in cell cycle phase: subG1 [2] [%] | phase of the cell cycle in which cells arrest or delay (150 nM, 24 hours) | phase of the cell cycle in which cells arrest or delay (150 nM, 48 hours) | % cells in cell cycle phase G1 [3] [%] | % cells in cell cycle phase G2/M [3] [%] | % cells in cell cycle phase S [3] [%] | % cells in cell cycle phase aneuploid [3] [%] | % cells in cell cycle phase subG1 [3] [%]
1 | 328724 (antisense eG*eA*e[5mC]*eA*eT*d[5mC]*dA*dT*dG*dT*dG*dA*dT*dT*dT*eG*e[5mC]*eT*e[5mC]*eA) [compound 328724] | 197% | 91% | 135% | 90 | 155% | 70% | 140% | 134% | 155% | 653 |  |  |  |  |  |  | 
2 | AGCCTATCCTGGATTACTTGAA (chemistry not fully specified) [ISIS 345373] |  |  |  |  |  |  |  |  |  |  | G2/M-phase | S-phase |  |  |  |  | 
3 | 341788 (antisense AGCCAAGCTCAGACGGATCCGA; all 2'-MOE, all phosphorothioate, methylation of C not given here) [compound 341788] | 114% | 154% | 140% | 54 | 303% | 76% | 163% | 105% | 116% | 748 |  |  |  |  |  |  | 
4 | 328337 (eG*e[5mC]*eT*eA*eG*dA*dT*dA*d[5mC]*dA*dA*dA*dG*dA*dT*eG*eG*eA*eA*eA) [compound 328337] | 104% and 64% | 106% and 108% | 113% and 109% | 88 | 107% and 99% | 92% and 73% | 119% and 135% | 105% and 143% | 108% and 74% |  |  |  |  |  |  |  | 
5 | 338690 (antisense TAGACAAAAACAGACTCTGA; all 2'-MOE, all phosphorothioate, methylation of C not given here) [compound 338690] | 194% | 124% | 123% | 78 | 149% | 91% | 112% | 110% | 190% | 413 |  |  |  |  |  |  | 
6 | 345373 (AGCCTATCCTGGATTACTTGAA; sugars from the 5' end e5 d10 e7, all phosphorothioate, methylation of C not given here) [compound 345373] | 68% | 66% | 176% | 94 | 196% | 75% | 145% | 132% | 119% | 116 |  |  |  |  |  |  | 
7 | 338750 (antisense TCCGCGGGGGCGGGGAGGCT; all 2'-MOE, all phosphorothioate, methylation of C not given here) [compound 338750] | 166% | 148% | 97% | 76 | 107% | 99% | 103% | 101% | 190% | 201 |  |  |  |  |  |  | 
8 | 328707 (eG*e[5mC]*eA*eA*e[5mC]*dA*dG*dG*d[5mC]*d[5mC]*dT*d[5mC]*dA*dA*dT*eA*eT*e[5mC]*eT*eT) [compound 328707] | 166% | 36% | 195% | 93 | 188% | 46% | 213% | 134% | 155% | 1486 |  |  | 103 | 122 | 87 | 140 | 125
9 | 328676 (eA*e[5mC]*e[5mC]*eT*e[5mC]*d[5mC]*d[5mC]*dA*dG*d[5mC]*d[5mC]*dA*dA*dT*d[5mC]*e[5mC]*eA*eT*eG*eT; antisense) [compound 328676] | 169% | 99% | 134% | 86 | 139% | 86% | 118% | 118% | 172% | 366 |  |  |  |  |  |  | 
10 | 328674 (eT*eG*e[5mC]*e[5mC]*e[5mC]*dT*dG*d[5mC]*dT*d[5mC]*dA*dG*dA*dG*d[5mC]*e[5mC]*e[5mC]*eT*eA*eG; antisense) [compound 328674] | 69% | 125% | 84% | 93 | 564% | 69% | 109% | 160% | 134% | 1663 |  |  |  |  |  |  | 
11 | 328339 (eG*e[5mC]*eA*eG*e[5mC]*dG*d[5mC]*dA*dG*d[5mC]*dT*dG*dG*dT*d[5mC]*eT*e[5mC]*e[5mC]*e[5mC]*e[5mC]) [compound 328339] | 61% | 77% | 143% | 102 | 235% | 73% | 123% | 153% | 92% | 678 |  |  |  |  |  |  | 
12 | ISIS 328403: 5-10-5 2′-MOE gapmer PS; SEQ ID NO 512; targets mir-106 pri-miRNA (eA*eG*eG*e[5mC]*e[5mC]*dT*dA*dT*dT*d[5mC]*d[5mC]*dT*dG*dT*dA*eG*e[5mC]*eA*eA*eA) [5-10-5 2′-MOE gapmer PS; targets mir-106 pri-miRNA] |  |  |  |  |  |  |  |  |  |  | G2/M-phase | S- and G2/M-phases |  |  |  |  | 
13 | 338713 (antisense ACCTCTCAGGAAGACGGACT; all 2'-MOE, all phosphorothioate, methylation of C not given here) [compound 338713] | 187% | 152% | 101% | 72 | 93% | 95% | 109% | 104% | 194% | 426 |  |  |  |  |  |  | 
14 | 338741 (antisense GCTTCACAATTAGACCATCC; all 2'-MOE, all phosphorothioate, methylation of C not given here) [compound 338741] | 166% | 141% | 112% | 73 | 157% | 100% | 99% | 101% | 170% | 185 |  |  |  |  |  |  | 

— US8178506B2, “Oligomeric compounds and compositions for use in modulation of small non-coding RNAs” (Regulus Therapeutics Inc., priority 2003, dated 2012)
